Laboratory results published in US20180055816A1, “PYRANONAPHTHOQUINONE COMPOUNDS AND METHODS OF USE THEREOF” (University of Kentucky Research Foundation, priority 2016, published 2018).

Columns and labels:
[1] = system: intracellular reactive oxygen species (ROS); test: Intracellular ROS production, CellROX Deep Red flow cytometry, HCT116 cells; format: cell-based, human; conditions: HCT116, 2 μM, 1 h
Method: (§1) Compounds that pass this single dose filter are then tested in a CRC (HCT116) in vitro cytotoxicity assay and, in parallel, an in vitro assay to assess propensity for intracellular reactive oxygen species (ROS) production using the redox sensitive probe CeIIROX® Deep Red reagent (Invitrogen) by flow cytometry analysis (47).
The ROS production was determined using the CellROX Deep Red Flow Cytometry Assay Kit according to the manufacturer's protocol (Life Technologies). Briefly, cells were treated with 2 μM of the indicated compounds or DMSO as control for 1 h. After treatment, cells were incubated with 0.5 μM of CellROX Deep Red reagent for 1 h at 37° C., washed twice with PBS and immediately analyzed by a FACScan flow cytometer. For the measurement of cellular H2O2 level, cells were treated with 2 μM of the indicated compounds for 5 h.

Grx3 = target: T1, Grx3 (Homo sapiens, UniProt O76003); test: Affinity pull-down / binding to Grx3; conditions: streptavidin pull-down, competition, Western blot
T1 construct: endogenous in cells; host or cells: HeLa cell lysates; HCT116 cell lysates
T1 sequence (O76003 1-335): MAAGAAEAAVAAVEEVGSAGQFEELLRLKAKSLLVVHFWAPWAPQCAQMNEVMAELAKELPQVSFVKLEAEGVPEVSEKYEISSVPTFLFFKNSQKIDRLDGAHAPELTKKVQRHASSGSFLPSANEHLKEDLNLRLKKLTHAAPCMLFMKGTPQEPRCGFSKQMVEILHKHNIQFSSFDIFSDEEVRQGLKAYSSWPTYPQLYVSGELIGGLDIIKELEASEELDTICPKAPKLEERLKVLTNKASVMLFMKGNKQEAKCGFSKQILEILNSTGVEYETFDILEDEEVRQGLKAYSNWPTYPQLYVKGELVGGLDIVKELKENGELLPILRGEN
Method: The precipitates were resolved by SDS-PAGE, and the gel was stained with Coomassie blue. (C) Sequences illustrating amino acids and peptides of Prx1 and Grx3 identified by mass spectrometry analysis. The unique bands as shown by d7-pull down in the experiment for FIG. 20B were excised and subjected to in-gel tryptic digestion and analysis by MS, wherein the identified amino acids and peptides are shown in red characters. (D) Western blot illustrating that HCT116 cell lysates were incubated with different concentrations of d5 or d7 in the absence or presence of a ten-fold excess of FB for 3 h, followed by pull-down with streptavidin-agarose and Western blot analysis for the indicated proteins.
FIGS. 21A-D show images illustrating that the active probe d7 binds to and co-localizes with Prx1 and Grx3. (A) and (B) The recombinant Prx1 (A) or Grx3 (B) was incubated with d7 for 2 hours, followed by streptavidin pull down and Western blot analysis for the indicated proteins. (C) and (D) HCT116 cells were incubated with 25 μM d5, 25 μM d7 or DMSO as control for 5 hours, followed by confocal sections of the cells staining for Prx1 (C) or Grx3 (D) (red), biotin (green) and DAPI (blue). Scale bars, 10 μm.
HeLa cell pellets were purchased from National Cell Culture Center (Minneapolis, Minn.) and lysed in 20 ml of the NP-40 lysis buffer. […]

cellular GSH = test: Cellular glutathione (GSH) assay in HCT116 cells; format: cell-based, human; conditions: HCT116, 2 μM, 5 h
Method: Cells were treated with 2 μM of the indicated compounds or DMSO as control for 5 h. After treatment, a total number of 1×10^6 cells were lysed in 100 μl of ice-cold NP-40 lysis buffer for 10 min. The lysate was centrifuged for 10 min and the supernatant was used for glutathione assay using the ApoGSH glutathione detection kit according to the manufacturer's protocol (BioVision Research Products, Mountain view, CA). The total amount of GSH was measured using a fluorescence plate reader at Ex./Em.=380/460 nm.

S6 phosphorylation = S6 phosphorylation in HCT116 cells (Western blot); format: cell-based, human; conditions: HCT116, 12 h; 2 μM FB or UCF76-A, 100 nM rapamycin, 0.5 μM AZD8055
Method: HCT116 cells were treated with 1 μM MK2206 and 100 nM PD0325901 alone and in combination, 100 nM rapamycin, 0.5 μM AZD8055, 2 μM UCF76-A or 2 μM FB for 12 h followed by Western blot analysis for the indicated proteins.
(§2) Cells were lysed in NP-40 lysis buffer (50 mM Tris-HCl, pH 7.5, 150 mM NaCl, 1 mM EDTA, 1% NP-40, 10% glycerol, protease and phosphatase inhibitor cocktail). Western blot analysis were performed using equivalent total protein loadings as described previously. For immunoprecipitation, the cell lysates were incubated with the indicated antibody overnight followed by incubation with a 50% slurry of protein G sepharose beads for 3 h at 4° C. The beads were washed three times with the lysis buffer, and the immunoprecipitated protein complexes were resuspended in 2× Laemmli sample buffer followed by western blot analysis.

4E-BP1 phosphorylation = test: Inhibition of 4E-BP1 phosphorylation in HCT116 cells (Western blot); format: cell-based, human; conditions: 12 h
Method: as §1, §2

[2] = system: colorectal cancer (CRC) cell lines; test: Cytotoxicity against a panel of colorectal cancer cell lines; format: cell-based, human; conditions: 72 h
Source text: Human colon (HCT116, DLD-1, T84, HCT15, RKO, SW620) and breast (MDA-MB-231) cancer cell lines were obtained from the American Type Culture Collection (ATCC, Manassas, Va.) and cultured in the appropriate medium with supplements as recommended by ATCC. […] In addition, all the cell lines are routinely checked for morphologic and growth changes, to probe for cross-contaminated, or genetically drifted cells. If any of these features occur, we use the short tandem repeat (STR) profiling service by ATCC to re-authenticate the cell lines. HCT116 cells with stable knockdown of 4E-BP1 and its control stable transfectants were generated as described previously {Ye, 2014 #1007}. For transient transfection, cells were transiently transfected with DNA using Lipofectamine 3000 according to the manufacturer's protocol (Life Technologies, Carlsbad, Calif.).
Cell growth was assessed as described previously. Briefly, 5×10^4 cells were seeded in 6-well plates in triplicates. After 24 h, cells were treated with the indicated compounds and incubated at 37° C. The cells were cultured for 3 days and the number of viable cells was counted using the Vi-CELL XR 2.03 (Beckman Coulter, Brea, Calif.). For apoptosis, cells were analyzed by flow cytometry using the Annexin V-FITC Apoptosis Detection Kit according to the manufacturer's protocol (BD Biosciences, San Jose, Calif.).

CCCC1OC2CC(=O)OC2C2=C1C(=O)c1c(O)cccc1C2=O (stereo not shown) [FB, frenolicin B]
cellular ROS [1]: marked increase
binding to Grx3 (Grx3): directly targets
GSH levels (cellular GSH): decrease
inhibition of S6 phosphorylation (S6 phosphorylation): did not inhibit
inhibition of 4E-BP1 phosphorylation (4E-BP1 phosphorylation): effectively inhibited
cytotoxicity against CRC cell lines [2]: potent cytotoxicity
cytotoxicity against CRC cell lines ([2]; listed as frenolicin B): potent cytotoxic activity
